The text below walks through data of US10202349B2, “Asymmetric bis-acridines with antitumour activity and their uses” (POLITECHNIKA GDAŃSKA, priority 2015, dated 2019).

Broadly, the EC50 is the concentration that produces a half-maximal response. High values mean weaker potency, low ones greater potency.

One test has as its system AsPC-1. The test is described as follows: Cytotoxic activity in vitro, SRB. Format: cell-based, human. In short, it runs like this:
(§1)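 Cytotoxicity was measured with the sulforhodamine B (SRB) assay following the US National Cancer Institute protocol. EC50 is the compound concentration that inhibits proliferation of the human tumour cells by 50% relative to untreated control.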

The next test concerns DU-145. The test is described as follows: Cytotoxic activity in vitro, SRB. The test is classed as cell-based, human. The method in brief:
as §1

In a further test the test system is H-460. The test is described as follows: Cytotoxic activity in vitro, SRB. Format: cell-based, human. The method in brief: as §1
The next test concerns HCT-116. Description: Cytotoxic activity in vitro, SRB. The test is classed as cell-based, human. The method in brief:
as §1

The subject of the next test is HT-29. Description: Cytotoxic activity in vitro, SRB. Format: cell-based, human. In short, it runs like this:
as §1

The test system of the next test is MCF-7. Description: Cytotoxic activity in vitro, SRB. The test is classed as cell-based, human. In short, it runs like this:
as §1

The next test concerns MDA-MB-231. Description: Cytotoxic activity in vitro, SRB. The test is classed as cell-based, human. The method in brief:
as §1

The next test relates to MiaPaCa-2. The test is described as follows: Cytotoxic activity in vitro, SRB. The test is classed as cell-based, human. In short, it runs like this: as §1
In the next test the test system is PANC-1. The test is described as follows: Cytotoxic activity in vitro, SRB. The test is classed as cell-based, human. The method in brief:
as §1

In the next test the test system is PC-3. Description: Cytotoxic activity in vitro, SRB. The test is classed as cell-based, human. The method in brief: as §1
The subject of the next test is UM-UC-3. The test is described as follows: Cytotoxic activity in vitro, SRB. Format: cell-based, human. In short, it runs like this: as §1
The test system of another test is DU 145. The test is described as follows: Anti-neoplasmic activity against xenograft in hairless mice. Format: in vivo. Particulars: single 2 mg/kg. The method, then: (§2) For this, we selected 26 bis-acridines, mainly on the basis of the cytotoxic activity. We performed 34 series of experiments evaluating the anti-neoplasmic activity on xenografts in hairless mice against eleven neoplasms of human origin from the determination of the cytotoxic activity of bis-acridines (table 4). The tumours were injected subcutaneously to hairless mice of 5-weeks, female Crl:Nu-Foxnlnu, at a rate of 5×10^6 cells per mouse. After attaining a tumour of about 100 mm^3 or 200 mm^3 in depending on the neoplasm and its take this was 8 or even 30 days, and began therapy. On the day therapy was initiated, we randomised the animals and divided them into groups. Test groups were from 6 to 8 animals, and controls had from 8 to 14 animals. Each compound was tested at three differentiated doses.
(§3) The preparations were administered intravenously (i.v.) twice weekly for 4 weeks (thrice weekly for rapidly growing neoplasms). In several series, we used intraperitoneally (i.p.) administration in the same scheme. […] The therapeutic efficacy of the tested formulations was evaluated by measuring tumour size (length and width measurements of the tumour on the basis of the calculated tumour volume). Tumours were measured twice weekly for a period of about 30 days for fast-growing neoplasms, as well as about 60 days for the slow-growing neoplasms. The tumour volume in the treated groups compared with the control group. On this basis, inhibition of tumour growth was calculated using the following formula: Tumour growth inhibition TGI [%]=100−(ΔVT/ΔVC×100) Where ΔVT—is mean the tumour volume in animals in the group treated at the given day of treatment, minus the mean tumour volume in animals at the date of commencement of therapy. ΔVC is mean tumour volume in animals in the control group on a given day of treatment minus the average tumour volume of animals on the date of commencement of therapy. The results of the tests of anti-neoplasmic activity conducted in xenografts of human-origin neoplasms in mice are shown in Table 5.
(§4) The result above was accepted only in the case that the dose administered in all animals or more than half of the animals that survived to the end of the experiment. In addition, the evaluation was the day that the administration of the preparation was already completed: for the fast-growing neoplasms (eg. HCT116) this was in the days from 15 to 26, while for slow-growing neoplasms (eg. Panc 1) on a day from 34 to 60. […] In addition, the maximum inhibition of neoplasms could be identified in the day, in which there were no factors that could change the value TGI value.
(§5) Such factors may include: a significant decrease in body weight, the appearance of observable toxaemia, excessive rate of tumour growth: tumours in excess of 2000 mm^3 and all animals alive on that day.

The test system of the next test is HCT 116. The test is described as above. Format: in vivo. As to the method: as §2, §3, §4, §5
The test system of another test is PC 3. Described as above. The test is classed as in vivo. Particulars: series 15, i.p., single 2 mg/kg, total 12 mg/kg, day 39. As to the method: as §2, §3, §4, §5
In another test the test system is BxPC-3. The test is described as follows: Cytotoxic activity in vitro, SRB. The test is classed as cell-based, human. In short, it runs like this:
as §1

Another test deals with Capan-2. Description: Cytotoxic activity in vitro, SRB. The test is classed as cell-based, human. In short, it runs like this:
as §1

In a further test the test system is MDA MB 231. Description: Anti-neoplasmic activity against xenograft in hairless mice. The test is classed as in vivo. As to the method:
as §2, §3, §4, §5

The subject of the next test is PANC 1. Described as above. The test is classed as in vivo. As to the method: as §2, §3, §4, §5
For a further test, the system named is AsPC 1. The test is described as above. The test is classed as in vivo. As to the method:
as §2, §3, §4, §5

The next test deals with BXPC 3. The description is as above. Format: in vivo. The method, then: as §2, §3, §4, §5
The next test concerns Mia Pa Ca 2. The description is as above. The test is classed as in vivo. Particulars: series 28, i.v., single 6 mg/kg, total 12 mg/kg, day 15, *at least half of animals did not survive. The method, then:
as §2, §3, §4, §5

With `CN(CCCNc1c2ccccc2nc2cccc([N+](=O)[O-])c12)CCCNc1ccc([N+](=O)[O-])c2[nH]c3ccc(O)cc3c(=O)c12` [C-1906, 9-{N-[(7-hydroxy-4-nitro-9(10H)acridono-1-yl)aminopropyl]-N-methylaminopropylamino}-1′-nitroacridone], the EC50 in the test on AsPC-1 turned out to be 0.135 µM; in the test with DU-145 it was 0.043 µM; with H-460, 0.014 µM; in the test on HCT-116, 0.015 µM; with HT-29, 0.022 µM; with MCF-7 it was 0.074 µM. Besides, the EC50 with MDA-MB-231 is 0.02 µM; with MiaPaCa-2, 0.024 µM; in the test with PANC-1, 0.032 µM; in the test with PC-3, 0.052 µM; in the test with UM-UC-3, 0.014 µM. For the same compound, the “TGI [%] [100 − (ΔVT/ΔVC × 100]” value in the test on DU 145 (series 1, i.p., total 6 mg/kg, day 35, *at least half of animals did not survive) is 60* %; with HCT 116 (series 9, i.v., single 1 mg/kg, total 5 mg/kg, day 16, *at least half of animals did not survive), 32* %; with PC 3 it was 52%.

With `Cc1ccc([N+](=O)[O-])c2c(NCCCN3CCN(CCCNc4ccc5ncn6c7ccc(O)cc7c(=O)c4c56)CC3)c3ccccc3nc12` [C-2025, 1-[3-(8-hydroxy-imidazo[4,5,1-de]-acridin-6-on-5-yl)aminopropyl]-4-[3′-(4′-methyl-1′-nitroacridin-1-yl)-aminopropyl]piperazine], the EC50 in the test on AsPC-1 came to 0.343 µM; with BxPC-3, 0.354 µM; in the test with Capan-2, 0.068 µM; in the test with DU-145, 0.067 µM; in the test with H-460, 0.074 µM; in the test with HCT-116 it was 0.051 µM. Besides, the EC50 with HT-29 worked out at 0.237 µM; in the test with MCF-7 it was 0.244 µM; in the test with MDA-MB-231 it was 0.017 µM; in the test on MiaPaCa-2, 0.038 µM; in the test on PANC-1, 0.042 µM; in the test on PC-3, 0.13 µM. The compound also had an EC50 with UM-UC-3 of 0.035 µM. Also, the “TGI [%] [100 − (ΔVT/ΔVC × 100]” value with HCT 116 (series 7, i.v., single 20 mg/kg, total 120 mg/kg, day 15) was 4%; in the test with MDA MB 231 (series 19, i.v., single 5 mg/kg, total 40 mg/kg, day 39), 12%; with PANC 1 (series 20, i.v., single 20 mg/kg, total 160 mg/kg, day 26, *at least half of animals did not survive), 61* %.

In the case of `O=c1c2ccccc2n2cnc3ccc(NCCCN4CCN(CCCNc5c6ccccc6nc6cccc([N+](=O)[O-])c56)CC4)c1c32` [C-2041, 1-[3-(imidazo[4,5,1-de]-acridin-6-on-5-yl)aminopropyl]-4-[3′-(1′-nitroacridin-1-yl)-aminopropyl]piperazine], the EC50 in the test on AsPC-1 was 0.069 µM; in the test with BxPC-3, 0.054 µM; in the test on Capan-2 it was 0.032 µM; in the test on DU-145 it was 0.022 µM; in the test with HCT-116, 0.025 µM; in the test on MCF-7, 0.082 µM. Further, the figures for the EC50 with MDA-MB-231, in the test on MiaPaCa-2 and in the test on PANC-1 were 0.021 µM, 0.039 µM and 0.024 µM, respectively. Besides, the “TGI [%] [100 − (ΔVT/ΔVC × 100]” value in the test on AsPC 1 (series 23, i.p., single 2 mg/kg, total 16 mg/kg, day 39) is on record as 29%; in the test with BXPC 3 (series 21, i.v., single 2 mg/kg, total 16 mg/kg, day 44) it was 81%; in the test with BXPC 3 (series 33, i.v., single 2 mg/kg, total 16 mg/kg, day 32), 48%; with DU 145 (series 18, i.v., total 16 mg/kg, day 33) it was 61%; with MDA MB 231 (series 34, i.v., single 4 mg/kg, total 32 mg/kg, day 32), 53%; with Mia Pa Ca 2, 38* %. The “TGI [%] [100 − (ΔVT/ΔVC × 100]” value came to 76% with PANC 1 (series 17, i.v., single 2 mg/kg, total 16 mg/kg, day 60); 83% in the test on PANC 1 (series 27, i.v., single 2 mg/kg, total 16 mg/kg, day 33); 82% with PANC 1 (series 32, i.v., single 1 mg/kg, total 16 mg/kg, day 33).

For `COc1ccc2c(c1)c(=O)c1c(NCCCN3CCN(CCCNc4c5ccccc5nc5cccc([N+](=O)[O-])c45)CC3)ccc3ncn2c31` [C-2049, 1-[3-(8-methoxy-imidazo[4,5,1-de]-acridin-6-on-5-yl)aminopropyl]-4-[3′-(1′-nitroacridin-1-yl)-aminopropyl]piperazine], the EC50 with AsPC-1 is 0.122 µM; with BxPC-3 it was 0.075 µM; in the test on Capan-2 it was 0.027 µM; in the test with DU-145 it was 0.021 µM; in the test on HCT-116, 0.028 µM; in the test on MDA-MB-231, 0.038 µM. The figures for the EC50 with MiaPaCa-2 and in the test on PANC-1 were 0.036 µM and 0.04 µM, respectively. For the same compound, the “TGI [%] [100 − (ΔVT/ΔVC × 100]” value is reported as 32* % with AsPC 1 (series 23, i.v., single 6 mg/kg, total 48 mg/kg, day 36, *at least half of animals did not survive); 63% with BXPC 3 (series 21, i.v., single 6 mg/kg, total 40 mg/kg, day 34); 63% in the test on PANC 1 (series 20, i.v., single 6 mg/kg, total 48 mg/kg, day 32); 80% with PANC 1 (series 27, i.v, single 2 mg/kg, total 16 mg/kg, day 47).

As to `Cc1ccc([N+](=O)[O-])c2c(NCCCN(C)CCCNc3ccc4ncn5c6ccccc6c(=O)c3c45)c3ccccc3nc12` [C-2053, 9-{N-[(imidazo[4,5,1-de]-acridin-6-on-5-yl)aminopropyl]-N-methylaminopropylamino}-4′-methyl-1′-nitroacridine], the EC50 stood at 0.176 µM in the test with AsPC-1; 0.224 µM in the test on BxPC-3; 0.065 µM with DU-145; 0.065 µM in the test on HCT-116; 0.087 µM with MiaPaCa-2; 0.098 µM in the test on PANC-1. Moreover, the “TGI [%] [100 − (ΔVT/ΔVC × 100]” value in the test on BXPC 3 (series 25, i.v., single 20 mg/kg, total 160 mg/kg, day 36) was 84%; in the test with BXPC 3 (series 33, i.v., single 20 mg/kg, total 160 mg/kg, day 32, *at least half of animals did not survive), 47* %; in the test on MDA MB 231 (series 34, i.v., single 15 mg/kg, total 120 mg/kg, day 32), 62%; with PANC 1 (series 24, i.v., single 15 mg/kg, total 120 mg/kg, day 37) it was 64%; in the test with PANC 1 (series 26, i.v., single 20 mg/kg, total 160 mg/kg, day 56) it was 69%.
